# ChEMBL document CHEMBL5244238, “Targeting mTOR for fighting diseases: A revisited review of mTOR inhibitors” (Eur J Med Chem, 2020)
# pIC50: −log10 of the molar value.
# Key:
# [1] = target: Serine/threonine-protein kinase mTOR (Homo sapiens, UniProt P42345)
# Description: Inhibition of mTOR (unknown origin)
# CAKI-1 = test: cells; conditions: Homo sapiens
# Description: Antiproliferative activity against human CAKI-1 cells
# MIA PaCa-2 = test: cells; conditions: Homo sapiens
# Description: Antiproliferative activity against human MIA PaCa-2 cells
# PC-3 = test: cells; conditions: Homo sapiens
# Description: Antiproliferative activity against human PC-3 cells
# A549 = test: cells; conditions: Homo sapiens
# Description: Antiproliferative activity against human A549 cells
# HeLa = test: cells; conditions: Homo sapiens
# Description: Antiproliferative activity against human HeLa cells
# clinical = conditions: human
# MCF7 = test: Antiproliferative activity against human MCF7 cells; assay type: functional, cell-based
# Homo sapiens = species on record: Homo sapiens; test: Selectivity index, ratio of IC50 for PI3Kalpha (unknown origin) to IC50 for mTOR (unknown origin); assay type: functional
compound,measurement,setting,value
COc1ccc(C2Cc3c(C)nc(N)nc3N([C@H]3CC[C@H](OCCO)CC3)C2=O)cn1 (some centres undefined),pIC50,[1],7.80
CO[C@H]1C[C@@H]2CC[C@@H](C)[C@@](O)(O2)C(=O)C(=O)N2CCCC[C@H]2C(=O)O[C@H]([C@H](C)C[C@@H]2CC[C@@H](OCCO)[C@H](OC)C2)CC(=O)[C@H](C)/C=C(\C)[C@@H](O)[C@@H](OC)C(=O)[C@H](C)C[C@H](C)/C=C/C=C/C=C/1C [EVEROLIMUS],pIC50,[1],8.30
CCCc1nn(C)c2c(=O)[nH]c(-c3cc(OC)cc(OC)c3)nc12,pIC50,CAKI-1,4.77
same,pIC50,MIA PaCa-2,4.62
same,pIC50,PC-3,4.42
same,pIC50,A549,4.85
same,pIC50,HeLa,4.72
CCOC(=O)N1Cc2nc(-c3ccc(NC(=O)NC4CC4)cc3)nc(N3CCOC[C@@H]3C)c2C1,pIC50,[1],> 6.00
CO[C@H]1C[C@@H]2CC[C@@H](C)[C@@](O)(O2)C(=O)C(=O)N2CCCC[C@H]2C(=O)O[C@H]([C@H](C)C[C@@H]2CC[C@@H](O)[C@H](OC)C2)CC(=O)[C@H](C)/C=C(\C)[C@@H](O)[C@@H](OC)C(=O)[C@H](C)C[C@H](C)/C=C/C=C/C=C/1C [SIROLIMUS],half-life,clinical,40 h
C[C@H]1COCCN1c1nc(-c2ccc(NC(=O)NCC(F)F)cc2)cc(-c2cc(F)ccc2S(C)(=O)=O)n1,pIC50,[1],> 6.00
CCc1ccc(C(=O)c2cnc3cc4c(cc3c2N2CCC(C(N)=O)CC2)OCCO4)cc1,pIC50,MCF7,5.70
same,pIC50,A549,5.10
O=C(c1ccc(C(=O)C(F)(F)F)cc1)N1CCOc2ccc(-c3cnc4ccccc4c3)cc2C1,pIC50,[1],7.02
same,Ratio IC50,Homo sapiens,4
